Results on 18 compounds are retold here after patent US9681664B2, “Macrocyclic picolinamides as fungicides” (Dow Agrosciences LLC, priority 2012, dated 2017).

Holding throughout (type): in vivo
The subject of assay [1] is Phakopsora pachyrhizi. The assay is described as follows: Asian soybean rust (PHAKPA) disease control. To be noted: topical, high volume. The procedure:
Technical grades of materials were dissolved in acetone, which were then mixed with nine volumes of water containing 0.011% Tween 20. The fungicide solutions were applied onto soybean seedlings using an automated booth sprayer to run-off. All sprayed plants were allowed to air dry prior to further handling.
Soybean plants (variety Williams 82) were grown in soil-less Metro mix, with one plant per pot. Two weeks old seedlings were used for testing. Plants were inoculated either 3 days prior to or 1 day after fungicide treatments. Plants were incubated for 24 h in a dark dew room at 22° C. and 100% RH then transferred to a growth room at 23° C. for disease to develop. Disease severity was assessed on the sprayed leaves.

The test system of assay [2] is Puccinia triticina; Synonym: Puccinia recondite f. sp. tritici. Description: Wheat brown rust (PUCCRT) disease control on wheat seedlings. To be noted: for pest or weed control at 100 ppm / pest or weed control at 121.5 g/ha: Puccinia triticina; for pest or weed control at 121.5 g/ha: low volume application, 121.5 g/H; for pest or weed control at 100 ppm / PUCCRT 1DP disease control / PUCCRT 3DC disease control: 100 ppm. The essentials: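 Yuma wheat grown to first fully emerged leaf was inoculated with Puccinia triticina spore suspension either before or after fungicide treatment, held overnight at 22° C. and 100% RH in darkness, then kept at 24° C. Fungicide applied by booth sprayer to run-off (acetone/water, 110 ppm Triton X-100) or as EC by track spray.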

The subject of assay [3] is Mycosphaerella graminicola; Anamorph: Septoria tritici. The assay is described as follows: Leaf blotch of wheat (SEPTTR) disease control on wheat seedlings. The following applies: for pest or weed control at 100 ppm / pest or weed control at 121.5 g/ha: Zymoseptoria tritici; for pest or weed control at 121.5 g/ha: low volume application, 121.5 g/H; for pest or weed control at 100 ppm / SEPTTR 1DP disease control / SEPTTR 3DC disease control: 100 ppm. The essentials: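 Protective or curative format: Septoria tritici inoculation either preceded or followed fungicide application to first-leaf Yuma wheat. Severity scored 0–100%; control expressed versus untreated.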

Setting [4] is: 24 h, 1 Day Protectant, read-out: Disease Control PHAKPA 1DP.
Setting [5] is: 24 h, High volume application, 1 Day Protectant, read-out: PUCCRT 1DP disease control.
The mark [6] stands for this setting: 72 h, High volume application, 3 Day Curative, read-out: PUCCRT 3DC disease control.
The mark [7] stands for this setting: 24 h, High volume application, 1 Day Protectant, read-out: SEPTTR 1DP disease control.
The mark [8] stands for this setting: 72 h, High volume application, 3 Day Curative, read-out: SEPTTR 3DC disease control.
Setting [9] is: 24 h, Wheat Brown Rust, 1 Day Protectant, high volume application, read-out: Disease Control PUCCRT 1 DP 100 ppm.
Where [10] appears, read: 24 h, Wheat Brown Rust, 1 Day Protectant, read-out: Disease Control PUCCRT 1 DP 121.5 g/H.
The mark [11] stands for this setting: 72 h, Wheat Brown Rust, 3 Day Curative, high volume application, read-out: Disease Control PUCCRT 3 DC 100 ppm.
Where [12] appears, read: 72 h, Wheat Brown Rust, 3 Day Curative, read-out: Disease Control PUCCRT 3 DC 121.5 g/H.
Where [13] appears, read: 24 h, Wheat Leaf Blotch, 1 Day Protectant, high volume application, read-out: Disease Control SEPTTR 1 DP 100 ppm.
Setting [14] is: 24 h, Wheat Leaf Blotch, 1 Day Protectant, read-out: Disease Control SEPTTR 1 DP 121.5 g/H.
The mark [15] stands for this setting: 72 h, Wheat Leaf Blotch, 3 Day Curative, high volume application, read-out: Disease Control SEPTTR 3 DC 100 ppm.
The mark [16] stands for this setting: 72 h, Wheat Leaf Blotch, 3 Day Curative, read-out: Disease Control SEPTTR 3 DC 121.5 g/H.
The mark [17] stands for this setting: High volume application, 1 Day Protectant.
[18] abbreviates: High volume application, 3 Day Curative.

Where two headings read alike, the source gives them in different places.

For `COc1ccnc(C(=O)N[C@H]2CCC[C@H](OCC(C)C)[C@@H](OCCCC(F)(F)F)[C@H](C)OC2=O)c1OCOC(C)=O` [F44], the pest or weed control at 25 ppm in assay [1] (setting [4]) lay within 80 to 100%. The pest or weed control at 100 ppm in assay [2] (setting [5]), in assay [2] (setting [6]), in assay [3] (setting [7]) and in assay [3] (setting [8]) was 80 to 100% each time.

On to `CCCO[C@H]1[C@H](C)OC(=O)[C@@H](NC(=O)c2nccc(OC)c2OCOC(C)=O)CCC[C@@H]1OCC(C)C` [F45], for which the pest or weed control at 25 ppm was in the range of 80 to 100% in assay [1] (setting [4]) and 80 to 100% in assay [1] (72 h, 3 Day Curative, read-out: Disease Control PHAKPA 3DC). In addition, the pest or weed control at 100 ppm in assay [2] (setting [5]), in assay [2] (setting [6]), in assay [3] (setting [7]) and in assay [3] (setting [8]) was 80 to 100% in each case.

With `COc1ccnc(C(=O)N[C@H]2CCC[C@H](OCC(C)C)[C@@H](OC(=O)C3CC3)[C@H](C)OC2=O)c1OCOC(C)=O` [F46], in assay [1] (setting [4]), the pest or weed control at 25 ppm fell in the range of 80 to 100%. Moreover, the pest or weed control at 100 ppm in assay [2] (setting [5]), in assay [2] (setting [6]), in assay [3] (setting [7]) and in assay [3] (setting [8]) was 80 to 100% in each case.

Consider `CCCO[C@H]1[C@H](C)OC(=O)[C@@H](NC(=O)c2nccc(OC)c2OC(C)=O)CCC[C@@H]1Oc1cc(C)cc(C)c1` [F282], for which the pest or weed control at 100 ppm in assay [2] (setting [9]), in assay [2] (setting [11]), in assay [3] (setting [13]) and in assay [3] (setting [15]) was 80 to 100% each time. The pest or weed control at 121.5 g/ha in assay [2] (setting [10]), in assay [2] (setting [12]), in assay [3] (setting [14]) and in assay [3] (setting [16]) was 80 to 100% throughout.

Turning to `CCCO[C@H]1CCC[C@H](NC(=O)c2nccc(OC)c2O)C(=O)O[C@@H](C)[C@@H]1Oc1ccc(-c2ccccc2)cc1` [F283], the pest or weed control at 100 ppm in assay [2] (setting [9]) lay in the range of 80 to 100%; in assay [2] (setting [11]), 0 to 80%; in assay [3] (setting [13]), 80 to 100%; in assay [3] (setting [15]) it was 0 to 80%.

With `CCCO[C@H]1[C@H](C)OC(=O)[C@@H](NC(=O)c2nccc(OC)c2OC(C)=O)CCC[C@@H]1Oc1cccc(F)c1` [F284], the pest or weed control at 100 ppm in assay [2] (setting [9]), in assay [2] (setting [11]), in assay [3] (setting [13]) and in assay [3] (setting [15]) was 80 to 100% each time. In addition, the pest or weed control at 121.5 g/ha in assay [2] (setting [10]), in assay [2] (setting [12]), in assay [3] (setting [14]) and in assay [3] (setting [16]) was 80 to 100% throughout.

For `CCCO[C@H]1CCC[C@H](NC(=O)c2nccc(OC)c2OC(C)=O)C(=O)O[C@@H](C)[C@@H]1Oc1ccc(Br)cc1` [F285], the pest or weed control at 100 ppm is 80 to 100% in assay [2] (setting [9]), 0 to 80% in assay [2] (setting [11]), 80 to 100% in assay [3] (setting [13]) and 80 to 100% in assay [3] (setting [15]). Moreover, the pest or weed control at 121.5 g/ha in assay [2] (setting [10]), in assay [2] (setting [12]), in assay [3] (setting [14]) and in assay [3] (setting [16]) was 80 to 100% in each case.

Turning to `CCCO[C@H]1CCC[C@H](NC(=O)c2nccc(OC)c2OC(C)=O)C(=O)O[C@@H](C)[C@@H]1Oc1cccc(Cl)c1` [F286], the pest or weed control at 100 ppm in assay [2] (setting [9]), in assay [2] (setting [11]), in assay [3] (setting [13]) and in assay [3] (setting [15]) was 80 to 100% throughout. Moreover, the pest or weed control at 121.5 g/ha in assay [2] (setting [10]) was 80 to 100%; in assay [2] (setting [12]), 0 to 80%; in assay [3] (setting [14]) it was 80 to 100%; in assay [3] (setting [16]), 80 to 100%.

Turning to `CCCO[C@H]1CCC[C@H](NC(=O)c2nccc(OC)c2OC(C)=O)C(=O)O[C@@H](C)[C@@H]1Oc1ccc(-c2ccccc2)cc1` [F287], the pest or weed control at 100 ppm in assay [2] (setting [9]), in assay [2] (setting [11]), in assay [3] (setting [13]) and in assay [3] (setting [15]) was 80 to 100% throughout. For the same compound, the pest or weed control at 121.5 g/ha in assay [2] (setting [10]), in assay [2] (setting [12]), in assay [3] (setting [14]) and in assay [3] (setting [16]) was 80 to 100% each time.

Turning to `C=C(C)c1ccc(O[C@H]2[C@H](C)OC(=O)[C@@H](NC(=O)c3nccc(OC)c3O)CCC[C@@H]2OCCC)cc1` [F288], the pest or weed control at 100 ppm in assay [2] (setting [9]), in assay [2] (setting [11]), in assay [3] (setting [13]) and in assay [3] (setting [15]) was 80 to 100% in each case.

For `C=C(C)c1ccc(O[C@H]2[C@H](C)OC(=O)[C@@H](NC(=O)c3nccc(OC)c3OC(C)=O)CCC[C@@H]2OCCC)cc1` [F289], the pest or weed control at 100 ppm in assay [2] (setting [9]), in assay [2] (setting [11]), in assay [3] (setting [13]) and in assay [3] (setting [15]) was 80 to 100% each time. Besides, the pest or weed control at 121.5 g/ha in assay [2] (setting [10]), in assay [2] (setting [12]), in assay [3] (setting [14]) and in assay [3] (setting [16]) was 80 to 100% each time.

Turning to `CCCOC(=O)O[C@H]1CCC[C@H](NC(=O)c2nccc(OC)c2O)C(=O)O[C@@H](C)[C@@H]1Oc1cc(C)cc(C)c1` [F290], the pest or weed control at 100 ppm was 80 to 100% in assay [2] (setting [9]), 80 to 100% in assay [2] (setting [11]), 0 to 80% in assay [3] (setting [13]) and 0 to 80% in assay [3] (setting [15]).

For the compound `CCCOC(=O)O[C@H]1CCC[C@H](NC(=O)c2nccc(OC)c2OC(C)=O)C(=O)O[C@@H](C)[C@@H]1Oc1cc(C)cc(C)c1` [F291], the pest or weed control at 100 ppm in assay [2] (setting [9]) fell in the range of 80 to 100%; in assay [2] (setting [11]) it was 0 to 80%; in assay [3] (setting [13]) it was 80 to 100%; in assay [3] (setting [15]), 80 to 100%.

For the compound “N-[(3S,7S,8S,9S)-7,8-dibenzyloxy-9-methyl-2-oxo-oxonan-3-yl]-3-hydroxy-4-methoxypyridine-2-carboxamide [F15]”, the “PUCCRT 1DP disease control” value in assay [2] (setting [17]) is “A (80-100)”. Besides, the “PUCCRT 3DC disease control” value in assay [2] (setting [18]) is “A (80-100)”. Also, in assay [3] (setting [17]), the “SEPTTR 1DP disease control” value was “A (80-100)”. The “SEPTTR 3DC disease control” value in assay [3] (setting [18]) is listed as “A (80-100)”.

“[2-[[(3S,7S,8S,9S)-7-(cyclopentoxy)-9-methyl-2-oxo-8-propoxy-oxonan-3-yl]carbamoyl]-4-methoxy-3-pyridyl]3-methoxypropanoate [F19]”: the “PUCCRT 1DP disease control” value in assay [2] (setting [17]) is recorded as “A (80-100)”. The “PUCCRT 3DC disease control” value in assay [2] (setting [18]) is reported as “A (80-100)”. For the same compound, the “SEPTTR 1DP disease control” value in assay [3] (setting [17]) is listed as “A (80-100)”. In assay [3] (setting [18]), the “SEPTTR 3DC disease control” value was “A (80-100)”.

Consider “[2-[[(3S,7S,8S,9S)-8-isobutoxy-9-methyl-7-(2-methylallyloxy)-2-oxo-oxonan-3-yl]carbamoyl]-4-methoxy-3-pyridyl]acetate [F18]”, for which the “PUCCRT 1DP disease control” value in assay [2] (setting [17]) is reported as “A (80-100)”. In assay [2] (setting [18]), the “PUCCRT 3DC disease control” value was “A (80-100)”. Besides, the “SEPTTR 1DP disease control” value in assay [3] (setting [17]) was “A (80-100)”. In addition, in assay [3] (setting [18]), the “SEPTTR 3DC disease control” value is given as “A (80-100)”.

In the case of “[4-methoxy-2-[[(3S,7S,8S,9S)-9-methyl-7,8-bis(2-methylallyloxy)-2-oxo-oxonan-3-yl]carbamoyl]-3-pyridyl]oxymethyl acetate [F16]”, the “PUCCRT 1DP disease control” value in assay [2] (setting [17]) is given as “A (80-100)”. The “PUCCRT 3DC disease control” value in assay [2] (setting [18]) is “A (80-100)”. In assay [3] (setting [17]), the “SEPTTR 1DP disease control” value was “A (80-100)”. Besides, the “SEPTTR 3DC disease control” value in assay [3] (setting [18]) is reported as “A (80-100)”.

Consider “[4-methoxy-2-[[(3S,7S,8S,9S)-9-methyl-7,8-bis(2-methylallyloxy)-2-oxo-oxonan-3-yl]carbamoyl]-3-pyridyl]oxymethyl-2-methylpropanoate [F17]”, for which the “PUCCRT 1DP disease control” value in assay [2] (setting [17]) is listed as “A (80-100)”. For the same compound, the “PUCCRT 3DC disease control” value in assay [2] (setting [18]) was “A (80-100)”. The “SEPTTR 1DP disease control” value in assay [3] (setting [17]) is on record as “A (80-100)”. Moreover, the “SEPTTR 3DC disease control” value in assay [3] (setting [18]) is “A (80-100)”.
